In assay [1] the test system is A549 cells. Kind of assay: Inhibition of cancer cell growth, MTT assay, A549 cells. In kind it is cell-based. Particulars: Homo sapiens, 72 h compound exposure. The method, then: (§1) Inhibition of cell growth by compounds was measured using MTT assay (Mosmann, T., Journal of Immunological Methods, 1983, 65, 55-63). Tumor cell lines were purchased from ATCC (American Type Culture Collection, Manassas, Va.). All cell lines were maintained in RPMI 1640 (Hyclone) supplemented with 10% fetal bovine serum (FBS, Hyclone), glutamine (2 mM, Hyclone), and antibiotics (penicillin 100 U/mL and streptomycin 50 μg/mL) at 37° C. in a humidified atmosphere of 5% CO2 in air. Taxol (as a positive control, Sigma) and compounds were dissolved in DMSO (Sigma), and the final concentration of DMSO in the medium was 1%. Tumor cells were plated in 96-well plates at densities of about 4000 cells/well of a 96-well plate and allowed to adhere/grow for 24 h. They were then treated with various concentrations of drug for 72 h. 3-(4,5-Dimethylthiazol-2-yl)-2,5-diphenyltetrazolium bromide (MTT, Sigma) was used to determine the number of viable cells at the time of compound addition and the number of cells remaining after 72 h compound exposure. The number of cells remaining after 72 h was compared to the number of viable cells at the time of compound addition by measuring the absorbance at 570 nm, allowing for the calculation of growth inhibition.
(§2) All concentrations of compounds were tested in triplicate and controls were averaged over 4 wells. IC50 was calculated by plotting the concentration of compound vs the percentage of inhibition in treated wells using GraphPad Prism 5. […] The scale utilized in Table 4 is as follows: +++ less than 1000 nM, ++ between 1000 and 5000 nM, and + greater than 5000 nM.
Background: Tetrazolium assays rely on reduction of a dye to a coloured formazan, in cell work by metabolically active cells.

Assay [2] concerns A375 cells. Kind of assay: Inhibition of cancer cell growth, MTT assay, A375 cells. The class given is cell-based. Particulars: Homo sapiens, A-375, 72 h compound exposure. The protocol: as §1, §2
The target in assay [3] is T1, BRAF V600E (Homo sapiens, UniProt P15056, V600E).
T1 construct: purchased Invitrogen
Kind of assay: Z′-LYTE kinase inhibition assay against BRAF V600E (Invitrogen). The class given is biochemical. Particulars: 1 μM compound, Z′-LYTE method. The method, then: (§3) Inhibitory activities of compounds against BRAF or BRAF V600E were measured by Invitrogen using Z′-LYTE® Method as briefly described in the following.
(§4) 4× Test compounds are dissolved in 1% DMSO. […] ATP solutions are diluted to a 4×ATP working concentration in Kinase Buffer (50 mM HEPES pH 7.5, 0.01% BRIJ-35, 10 mM MgCl2, 1 mM EGTA).
(§5) Reaction starts by 30-second shaking of mixture consisting of 2.5 μL4× test compound, […] and 2.5 μL 4×ATP Solution on Bar-coded Corning, low volume NBS, black 384-well plate (Corning Cat. #3676). Then the mixture is incubated for 60-minute at room temperature for the kinase reaction, followed by addition of 5 μL of a 1:1024 dilution of development reagent A and 30-second plate shake. The mixture is then incubated for another 60-minute at room temperature for development reaction. Finally fluorescence is read by plate reader.

Assay [4] has as its target T2, BRAF (Homo sapiens, UniProt P15056).
T2 construct: purchased Invitrogen
Kind of assay: Z′-LYTE kinase inhibition assay against BRAF (Invitrogen). Particulars: 1 μM compound, Z′-LYTE method. In kind it is biochemical. The protocol:
as §3, §4, §5

The target of assay [5] is T3, KDR (VEGFR2) (Homo sapiens, UniProt P35968).
T3 construct: purchased Invitrogen
Kind of assay: Z′-LYTE kinase inhibition assay against KDR (Invitrogen). In kind it is biochemical. Particulars: 1 μM compound, Z′-LYTE method. The method, then:
Inhibitory activities of compounds against KDR (VEGFR2) were also measured by Invitrogen using Z′-LYTE® Method as described above with the following modification. The 2×KDR (VEGFR2)/Tyr 01 mixture is prepared in 50 mM HEPES pH 7.5, 0.01% BRIJ-35, 10 mM MgCl2, 1 mM EGTA. The final 10 μL Kinase Reaction consists of 0.5-11.7 ng KDR (VEGFR2) and 2 μM Tyr 01 in 50 mM HEPES pH 7.5, 0.01% BRIJ-35, 10 mM MgCl2, 1 mM EGTA. After the 1 hour Kinase Reaction incubation, 5 μL of a 1:256 dilution of Development Reagent B is added. […] The scale utilized in Table 3 is as follows: ++ more than 70% inhibition and + less than 70% inhibition.

T3 sequence (P35968 20-1356): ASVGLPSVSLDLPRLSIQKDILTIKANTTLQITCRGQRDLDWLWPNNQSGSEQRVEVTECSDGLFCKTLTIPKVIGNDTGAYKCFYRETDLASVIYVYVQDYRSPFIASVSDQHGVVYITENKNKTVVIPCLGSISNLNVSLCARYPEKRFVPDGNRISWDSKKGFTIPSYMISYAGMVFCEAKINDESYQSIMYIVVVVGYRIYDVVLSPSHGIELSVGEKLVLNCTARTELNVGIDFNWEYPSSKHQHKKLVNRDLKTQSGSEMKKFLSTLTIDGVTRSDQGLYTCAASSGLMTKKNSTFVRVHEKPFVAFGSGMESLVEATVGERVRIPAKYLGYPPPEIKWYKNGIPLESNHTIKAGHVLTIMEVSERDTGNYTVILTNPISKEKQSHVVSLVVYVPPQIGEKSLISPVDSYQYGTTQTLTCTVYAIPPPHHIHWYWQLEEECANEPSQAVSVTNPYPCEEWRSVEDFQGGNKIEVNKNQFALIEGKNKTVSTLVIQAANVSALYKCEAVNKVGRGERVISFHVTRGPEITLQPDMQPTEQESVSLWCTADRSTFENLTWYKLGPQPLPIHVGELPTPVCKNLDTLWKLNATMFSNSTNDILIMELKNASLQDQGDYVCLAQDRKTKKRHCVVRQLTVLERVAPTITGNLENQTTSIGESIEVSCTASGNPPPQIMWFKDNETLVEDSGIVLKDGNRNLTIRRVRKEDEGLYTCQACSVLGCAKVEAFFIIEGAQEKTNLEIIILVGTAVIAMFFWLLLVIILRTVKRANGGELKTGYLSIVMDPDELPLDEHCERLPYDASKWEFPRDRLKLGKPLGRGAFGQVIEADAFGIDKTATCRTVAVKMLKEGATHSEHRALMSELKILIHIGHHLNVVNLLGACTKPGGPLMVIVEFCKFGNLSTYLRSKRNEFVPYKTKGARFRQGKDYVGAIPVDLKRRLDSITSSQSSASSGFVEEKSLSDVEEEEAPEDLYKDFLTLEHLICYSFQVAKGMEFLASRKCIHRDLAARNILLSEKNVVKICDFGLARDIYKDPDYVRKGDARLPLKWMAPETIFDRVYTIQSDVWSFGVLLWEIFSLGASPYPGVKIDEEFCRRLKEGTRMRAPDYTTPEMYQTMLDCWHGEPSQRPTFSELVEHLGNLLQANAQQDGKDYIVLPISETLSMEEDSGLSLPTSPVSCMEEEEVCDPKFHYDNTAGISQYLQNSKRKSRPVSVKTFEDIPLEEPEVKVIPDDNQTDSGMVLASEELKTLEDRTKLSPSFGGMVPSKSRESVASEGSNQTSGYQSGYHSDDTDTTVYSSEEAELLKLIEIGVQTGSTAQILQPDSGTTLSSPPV
T1 sequence (P15056 whole entry V600E): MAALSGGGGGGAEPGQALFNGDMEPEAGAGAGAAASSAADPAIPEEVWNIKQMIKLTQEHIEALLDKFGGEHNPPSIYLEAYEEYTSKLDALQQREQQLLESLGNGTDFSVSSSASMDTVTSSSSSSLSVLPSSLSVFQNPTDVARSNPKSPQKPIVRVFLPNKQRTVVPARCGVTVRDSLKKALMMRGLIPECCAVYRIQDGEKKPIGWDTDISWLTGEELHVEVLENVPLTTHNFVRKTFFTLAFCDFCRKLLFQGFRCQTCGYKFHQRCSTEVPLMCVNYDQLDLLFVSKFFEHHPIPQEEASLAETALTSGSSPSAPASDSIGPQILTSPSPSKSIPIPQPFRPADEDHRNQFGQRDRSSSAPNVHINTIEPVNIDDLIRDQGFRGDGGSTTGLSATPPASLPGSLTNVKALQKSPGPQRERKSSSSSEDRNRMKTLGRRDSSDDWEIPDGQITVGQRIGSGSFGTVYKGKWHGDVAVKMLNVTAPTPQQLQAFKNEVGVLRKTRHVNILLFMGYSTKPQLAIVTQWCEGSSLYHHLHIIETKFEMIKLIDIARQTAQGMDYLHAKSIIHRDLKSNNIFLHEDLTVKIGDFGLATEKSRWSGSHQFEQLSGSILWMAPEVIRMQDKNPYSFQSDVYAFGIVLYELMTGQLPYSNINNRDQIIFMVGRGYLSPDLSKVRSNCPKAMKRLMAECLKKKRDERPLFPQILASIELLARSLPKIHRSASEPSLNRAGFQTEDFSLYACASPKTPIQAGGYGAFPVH
T2 sequence (P15056 whole entry): as the sequence (P15056 whole entry V600E) above, with E600V counted along it

As to `CCCS(=O)(=O)Nc1ccc(F)c(C(=O)c2ccc3nccnc3c2)c1F` [Compound C01, N-(2,4-difluoro-3-(quinoxaline-6-carbonyl)phenyl)propane-1-sulfonamide], the IC50 in assay [1] and in assay [2] was below 1 µM each time. Also, the inhibition at 1 µM in assay [3] was above 89%; in assay [4], 70 to 89%.

In the case of `CCCS(=O)(=O)Nc1ccc(F)c(C(=O)c2ccc3ncc(-c4ccc(Cl)cc4)nc3c2)c1F` [Compound C02, N-(3-(3-(4-chlorophenyl)quinoxaline-6-carbonyl)-2,4-difluorophenyl)propane-1-sulfonamide], the IC50 in assay [1] and in assay [2] was below 1 µM in each case. Besides, the inhibition at 1 µM in assay [3] is above 89%; in assay [4], 70 to 89%.

On to `CCCS(=O)(=O)Nc1ccc(F)c(C(=O)c2ccc3ncc(OC)nc3c2)c1F` [Compound C03, N-(2,4-difluoro-3-(3-methoxyquinoxaline-6-carbonyl)phenyl)propane-1-sulfonamide], for which the 50% inhibitory concentration (IC50) in assay [1] and in assay [2] was 1 to 5 µM throughout. Moreover, the inhibition at 1 µM is above 89% in assay [3] and 70 to 89% in assay [4].

For `CCCS(=O)(=O)Nc1ccc(F)c(C(=O)c2ccc3ncc(C#N)nc3c2)c1F` [Compound C04, N-(3-(3-cyanoquinoxaline-6-carbonyl)-2,4-difluorophenyl)propane-1-sulfonamide], the IC50 in assay [1] and in assay [2] was below 1 µM throughout. For the same compound, the inhibition at 1 µM is above 89% in assay [3] and 70 to 89% in assay [4].

In turn, `CCCS(=O)(=O)Nc1ccc(F)c(C(=O)c2ccc3ncc(N4CCOCC4)nc3c2)c1F` [Compound C05, N-(2,4-difluoro-3-(3-morpholinoquinoxaline-6-carbonyl)phenyl)propane-1-sulfonamide] returned an IC50 in assay [2] of 1 to 5 µM.

`O=C(Nc1cccc(C(F)(F)F)c1)Nc1ccc(F)c(C(=O)c2ccc3nccnc3c2)c1F` [Compound C06, 1-(2,4-difluoro-3-(quinoxaline-6-carbonyl)phenyl)-3-(3-(trifluoromethyl)phenyl)urea]: the IC50 in assay [1] and in assay [2] was above 5 µM each time. Moreover, the figures for the inhibition at 1 µM in assay [3] and in assay [5] were 70 to 89% and below 70%, respectively.

On to `O=C(Nc1cccc(F)c1)Nc1ccc(F)c(C(=O)c2ccc3nccnc3c2)c1F` [Compound C07, 1-(2,4-difluoro-3-(quinoxaline-6-carbonyl)phenyl)-3-(3-fluorophenyl)urea], for which the IC50 was 1 to 5 µM in assay [1] and above 5 µM in assay [2]. Moreover, the inhibition at 1 µM in assay [3] was 70 to 89%; in assay [5], below 70%.

`O=C(Nc1ccc(Cl)c(C(F)(F)F)c1)Nc1ccc(F)c(C(=O)c2ccc3nccnc3c2)c1F` [Compound C08, 1-(4-chloro-3-(trifluoromethyl)phenyl)-3-(2,4-difluoro-3-(quinoxaline-6-carbonyl)phenyl)urea]: the IC50 in assay [1] was above 5 µM; in assay [2], 1 to 5 µM. Further, the inhibition at 1 µM in assay [3] and in assay [5] was below 70% throughout.

Take `O=C(Nc1ccc(F)c(C(=O)c2ccc3nccnc3c2)c1F)c1cccc(F)c1` [Compound C09, N-(2,4-difluoro-3-(quinoxaline-6-carbonyl)phenyl)-3-fluorobenzamide]: the IC50 in assay [1] and in assay [2] was above 5 µM in each case. The same compound had an inhibition at 1 µM in assay [3] of 70 to 89%.

As for `O=C(Nc1ccc(F)c(C(=O)c2ccc3nccnc3c2)c1F)c1cccc(C(F)(F)F)c1` [Compound C10, N-(2,4-difluoro-3-(quinoxaline-6-carbonyl)phenyl)-3-(trifluoromethyl)benzamide], the IC50 in assay [1] and in assay [2] was above 5 µM in each case. For the same compound, the values for the inhibition at 1 µM in assay [3] and in assay [5] were 70 to 89% and above 70%, respectively.

Broadly, the IC50 is the concentration at which inhibition is half-maximal. Higher therefore signals weaker potency in that assay. What is called inhibition is the drop in the measured response relative to a control, in per cent. Read a high inhibition as a strong effect.

The record behind these values is patent US9249110B2, “Substituted quinoxalines as B-raf kinase inhibitors” (NEUPHARMA, INC., priority 2011, dated 2016).
